Experimental data reported in paper PMC12155096 (International Journal of Molecular Sciences, 2025).
Like-named read-outs stand apart in the source and are kept apart here.

Legend:
[1] = target: Photinus pyralis (firefly) luciferase (Photinus pyralis, UniProt P08659); test: biochemical; format: biochemical
[2] = target: T1, human CYP1A2 (Homo sapiens, UniProt P05177); conditions: human
T1 sequence (P05177 1-516): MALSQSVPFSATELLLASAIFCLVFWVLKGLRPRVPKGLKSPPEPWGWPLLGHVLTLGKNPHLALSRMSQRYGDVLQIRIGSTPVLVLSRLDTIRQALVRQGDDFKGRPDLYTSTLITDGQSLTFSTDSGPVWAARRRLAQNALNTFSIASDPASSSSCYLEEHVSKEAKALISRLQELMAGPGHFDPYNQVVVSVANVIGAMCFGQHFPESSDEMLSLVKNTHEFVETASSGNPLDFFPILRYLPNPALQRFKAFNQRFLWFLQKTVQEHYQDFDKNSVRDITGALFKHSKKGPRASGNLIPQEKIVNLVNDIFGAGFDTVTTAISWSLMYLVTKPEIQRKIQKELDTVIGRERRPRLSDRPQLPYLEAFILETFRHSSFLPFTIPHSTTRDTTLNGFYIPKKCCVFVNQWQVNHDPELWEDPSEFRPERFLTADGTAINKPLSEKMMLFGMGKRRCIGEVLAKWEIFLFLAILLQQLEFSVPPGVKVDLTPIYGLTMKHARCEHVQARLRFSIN

[3] = target: T2, human CYP2C9 (Homo sapiens, UniProt P11712); conditions: human
T2 sequence (P11712 whole entry): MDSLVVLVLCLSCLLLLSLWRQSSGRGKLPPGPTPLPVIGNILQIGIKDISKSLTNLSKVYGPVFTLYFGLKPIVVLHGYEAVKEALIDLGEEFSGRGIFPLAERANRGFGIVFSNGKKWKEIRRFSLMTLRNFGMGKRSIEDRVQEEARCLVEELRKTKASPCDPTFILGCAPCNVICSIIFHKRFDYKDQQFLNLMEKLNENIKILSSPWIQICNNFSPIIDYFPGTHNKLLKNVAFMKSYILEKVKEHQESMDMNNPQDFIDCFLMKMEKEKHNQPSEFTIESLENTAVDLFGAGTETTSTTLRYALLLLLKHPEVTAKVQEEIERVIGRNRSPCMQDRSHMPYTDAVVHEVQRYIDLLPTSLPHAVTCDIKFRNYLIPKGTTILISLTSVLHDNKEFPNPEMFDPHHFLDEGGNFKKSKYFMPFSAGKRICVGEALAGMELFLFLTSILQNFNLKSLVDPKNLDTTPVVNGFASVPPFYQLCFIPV

[4] = target: T3, human CYP2C19 (Homo sapiens, UniProt P33261); conditions: human
T3 sequence (P33261 whole entry): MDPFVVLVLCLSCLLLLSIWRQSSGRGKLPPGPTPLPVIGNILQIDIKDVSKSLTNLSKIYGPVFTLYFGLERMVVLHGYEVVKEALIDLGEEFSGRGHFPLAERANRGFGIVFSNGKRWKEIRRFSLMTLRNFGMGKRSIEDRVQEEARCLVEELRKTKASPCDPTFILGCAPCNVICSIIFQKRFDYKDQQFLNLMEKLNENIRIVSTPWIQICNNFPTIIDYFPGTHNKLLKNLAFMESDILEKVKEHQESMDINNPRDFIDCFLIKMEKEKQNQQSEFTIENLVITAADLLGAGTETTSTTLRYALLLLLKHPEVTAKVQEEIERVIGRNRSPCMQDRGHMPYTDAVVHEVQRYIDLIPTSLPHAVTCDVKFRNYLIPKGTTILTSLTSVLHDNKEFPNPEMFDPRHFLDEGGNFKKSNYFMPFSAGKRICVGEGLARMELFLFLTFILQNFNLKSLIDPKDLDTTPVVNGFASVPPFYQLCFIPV

[5] = target: T4, human CYP2D6 (Homo sapiens, UniProt P10635); conditions: human
T4 sequence (P10635 whole entry): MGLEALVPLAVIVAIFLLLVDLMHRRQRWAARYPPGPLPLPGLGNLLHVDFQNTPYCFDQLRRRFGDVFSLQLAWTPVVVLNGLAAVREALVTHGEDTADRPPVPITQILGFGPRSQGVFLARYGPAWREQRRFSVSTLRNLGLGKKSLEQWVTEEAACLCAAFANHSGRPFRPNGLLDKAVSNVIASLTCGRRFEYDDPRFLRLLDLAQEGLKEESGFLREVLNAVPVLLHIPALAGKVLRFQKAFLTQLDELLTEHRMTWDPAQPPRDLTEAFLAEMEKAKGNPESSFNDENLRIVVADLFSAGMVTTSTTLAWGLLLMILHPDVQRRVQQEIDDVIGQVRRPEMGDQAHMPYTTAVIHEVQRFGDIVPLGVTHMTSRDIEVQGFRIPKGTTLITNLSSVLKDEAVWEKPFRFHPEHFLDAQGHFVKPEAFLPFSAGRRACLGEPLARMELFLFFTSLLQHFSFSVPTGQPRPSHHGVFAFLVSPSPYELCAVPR

[6] = target: T5, CYP3A4 (Homo sapiens, UniProt P08684)
T5 sequence (P08684 whole entry): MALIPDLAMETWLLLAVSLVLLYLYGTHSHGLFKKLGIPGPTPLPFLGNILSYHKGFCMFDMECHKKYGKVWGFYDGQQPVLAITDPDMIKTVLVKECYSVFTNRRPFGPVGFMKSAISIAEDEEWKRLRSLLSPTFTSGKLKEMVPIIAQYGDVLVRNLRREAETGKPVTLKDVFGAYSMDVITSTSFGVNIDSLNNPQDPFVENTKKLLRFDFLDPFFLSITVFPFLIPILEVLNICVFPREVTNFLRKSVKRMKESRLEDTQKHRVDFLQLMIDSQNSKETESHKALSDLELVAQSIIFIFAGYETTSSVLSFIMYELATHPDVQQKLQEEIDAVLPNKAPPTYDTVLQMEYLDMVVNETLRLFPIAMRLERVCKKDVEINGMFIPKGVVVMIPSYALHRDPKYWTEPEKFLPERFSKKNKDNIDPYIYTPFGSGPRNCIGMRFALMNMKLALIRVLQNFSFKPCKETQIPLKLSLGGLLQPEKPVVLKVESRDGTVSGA

[7] = target: T1, human CYP1A2; test: biochemical; conditions: CYP1A2 IC50 (half-maximal inhibitory concentration)
[8] = target: T2, human CYP2C9; test: biochemical
[9] = target: T3, human CYP2C19; test: biochemical; conditions: CYP2C19 IC50 (half-maximal inhibitory concentration)
[10] = target: T4, human CYP2D6; test: biochemical
[11] = target: T5, CYP3A4; test: biochemical; conditions: CYP3A4 IC50 (half-maximal inhibitory concentration)
[12] = CYP2C9 IC50 (half-maximal inhibitory concentration)
[13] = CYP2D6 IC50 (half-maximal inhibitory concentration)

Photinus pyralis (firefly) luciferase, sequence (P08659 whole entry): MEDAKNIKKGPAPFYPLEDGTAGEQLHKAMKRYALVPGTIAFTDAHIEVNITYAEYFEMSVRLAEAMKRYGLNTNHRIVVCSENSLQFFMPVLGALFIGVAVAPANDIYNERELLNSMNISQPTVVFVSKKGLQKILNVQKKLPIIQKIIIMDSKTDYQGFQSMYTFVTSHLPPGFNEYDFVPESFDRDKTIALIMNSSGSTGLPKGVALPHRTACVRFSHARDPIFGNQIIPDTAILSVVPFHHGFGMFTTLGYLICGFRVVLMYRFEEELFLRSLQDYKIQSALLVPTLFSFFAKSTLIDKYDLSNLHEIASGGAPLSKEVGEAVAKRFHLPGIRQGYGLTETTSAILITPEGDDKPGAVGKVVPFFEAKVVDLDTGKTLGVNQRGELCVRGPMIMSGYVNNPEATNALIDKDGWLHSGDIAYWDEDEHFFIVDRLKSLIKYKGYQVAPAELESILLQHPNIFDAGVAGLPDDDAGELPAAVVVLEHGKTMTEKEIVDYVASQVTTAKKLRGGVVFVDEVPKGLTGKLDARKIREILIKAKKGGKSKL

SMILES	Luciferase IC50 (half-maximal inhibitory concentration) [1]	CYP1A2 Efficacy (in parenthesis) [2]	CYP2C9 Efficacy (in parenthesis) [3]	CYP2C19 Efficacy (in parenthesis) [4]	CYP2D6 Efficacy (in parenthesis) [5]	CYP3A4 Efficacy (in parenthesis) [6]	IC50 [7]	IC50 [8, 12]	IC50 [9]	IC50 [10, 13]	IC50 [11]	IC50 [8]	IC50 [10]
C=CCOC(=O)C(C)(C)OC(=O)c1cc(-n2c(=O)cc(C(F)(F)F)n(C)c2=O)ccc1Cl [Butafenacil]	Inactive	35.06 ± 4.03 (-48 ± 4) %	23.68 ± 7.01 (-109 ± 17) %	50.02 ± 19.28 (-89 ± 23) %	26.96 ± 4.59 (-70 ± 7) %	0.51 ± 0.14 (-90 ± 4) %	35.1 µM	23.7 µM	50 µM	27 µM	0.51 µM	–	–
O=S(=O)(Oc1ccc(Cl)cc1)c1ccc(Cl)cc1 [Chlorfenson]	Inactive	3.21 ± 1.48 (-95 ± 14) %	18.81 ± 7.04 (-92 ± 16) %	0.14 ± 0.02 (-95 ± 43) %	21.56 ± 9.06 (-95 ± 15) %	6.8 ± 1.64 (41 ± 6) %	3.21 µM	18.8 µM	0.14 µM	21.6 µM	6.8 µM	–	–
N#Cc1c(Cl)c(Cl)c(Cl)c(C#N)c1Cl [Chlorothalonil]	Inactive	1.03 ± 0.19 (-97 ± 4) %	6.61 ± 1.87 (-85 ± 10) %	38.42 ± 34.42 (-114 ± 10) %	34.91 ± 0 (-58 ± 3) %	1.11 ± 0.13 (-78 ± 2) %	1.03 µM	6.61 µM	38.4 µM	34.9 µM	1.11 µM	–	–
CC(C1CC1)C(O)(Cn1cncn1)c1ccc(Cl)cc1 (stereo not drawn) [Cyproconazole]	Inactive	30.37 ± 9.95 (-33 ± 2) %	0.13 ± 0.04 (-105 ± 6) %	0.3 ± 0.07 (-141 ± 28) %	38.25 ± 2.49 (-72 ± 6) %	0.97 ± 0.57 (-70 ± 7) %	30.4 µM	0.13 µM	0.3 µM	38.3 µM	0.97 µM	–	–
CCC1COC(Cn2cncn2)(c2ccc(Cl)cc2Cl)O1 (stereo not drawn) [Etaconazole]	Inactive	31.85 ± 3.66 (-69 ± 5) %	5.71 ± 1.07 (-109 ± 6) %	0.32 ± 0.04 (-137 ± 10) %	45.4 ± 9.51 (-42 ± 2) %	0.1 ± 0.01 (-79 ± 1) %	31.9 µM	5.71 µM	0.32 µM	45.4 µM	0.1 µM	–	–
COP(=S)(OC)Oc1ccc(S(=O)(=O)N(C)C)cc1 [Famphur]	Inactive	35.73 ± 4.11 (-67 ± 14) %	0.4 ± 0.05 (-109 ± 5) %	0.09 ± 0.01 (-137 ± 1) %	35.57 ± 0 (-59 ± 2) %	9.06 ± 1.9 (-86 ± 7) %	35.7 µM	–	0.09 µM	–	9.06 µM	0.4 µM	35.6 µM
